Reference: patent US7189849B2, “Synthesis of acyclic nucleoside derivatives” (Medivir AB, priority 1997, dated 2007)

Columns and labels:
[1] = Plasma concentration assay in rats (H2G AUC oral vs i.v.); format: in vivo, male Sprague Dawley derived rats; conditions: Table 1B; plasma drug assay in rats, 10 mg/kg oral in propylene glycol, H2G AUC vs 10 mg/kg i.v. H2G
Description: A plasma concentration assay was done in male Sprague Dawley derived rats. The animals were fasted overnight prior to dosing but were permitted free access to water. Each of the compounds evaluated was prepared as a solution/suspension in propylene glycol at a concentration corresponding to 10 mg H2G/ml and shaken at room temperature for eight hours. Groups of rats (at least 4 rats in each group) received a 10 mg/kg (1 ml/kg) oral dose of each of the compounds; the dose was administered by gavage. At selected time points after dosing (0.25, 0.5, 1, 1.5, 2, 4, 6, 9, 12, 15, and 24 hours after dosing), heparinized blood samples (0.4 ml/sample) were obtained from a tail vein of each animal. The blood samples were immediately chilled in an ice bath. Within two hours of collection, the plasma was separated from the red cells by centrifugation and frozen till analysis. The components of interest were separated from the plasma proteins using acetonitrile precipitation. Following lyophilisation, and reconstitution, the plasma concentrations were determined by reverse phase HPLC with fluorescence detection. The oral uptake of H2G and other test compounds was determined by comparison of the H2G area under the curve derived from the oral dose compared to that obtained from a 10 mg/kg intravenous dose of H2G, administered to a separate group of rats. The results are depicted in Table 1B above.

[2] = Bioavailability testing in rats (24 h urinary H2G recovery); format: in vivo
Description: The bioavailability of compounds of the invention were compared to the parent compound H2G and other H2G derivatives in a rat model. Compounds of the invention and comparative compounds were administered, per oral (by catheter into the stomach), to multiples of three individually weighed animals to give 0.1 mmol/kg of the dissolved prodrug in an aqueous (Example 4, 5, Comparative example 1–3, 5, 8), peanut oil (Comparative examples 4, 9, 10) or propylene glycol (Example 1–3, 6–12, 17, Comparative example 6, 7) vehicle dependent on the solubility of the test compound ingredient. The animals were fasted from 5 hours before to approximately 17 hours after administration and were maintained in metabolic cages. Urine was collected for the 24 hours following administration and frozen until analysis. H2G was analysed in the urine using the HPLC/UV assay of Stahle & Oberg, Antimicrob Agents Chemother. 36 No 2, 339–342 (1992), modified as follows: samples upon thawing are diluted 1:100 in aq dist H2O and filtered through an amicon filter with centrifugation at 3000 rpm for 10 minutes. Duplicate 30 μl samples are chromatographed on an HPLC column; Zorbax SB-C18; 75×4.6 mm; 3.5 micron; Mobile phase 0.05M NH4PO4, 3–4% methanol, pH 3.3–3.5; 0.5 ml/min; 254 nm, retention time for H2G at MeOH 4% and pH 3.33, ˜12.5 min. Bioavailability is calculated as the measured H2G recovery from each animal averaged over at least three animals and expressed as a percentage of the averaged 24 hour urinary H2G recovery from a group of 4 individually weighed rats respectively injected i.v. jugularis with 0.1 mmol/kg H2G in a Ringer's buffer vehicle and analysed as above.
Comparative example 1 (H2G) was from the same batch as used for preparation of Examples 1 to 12. The preparation of Comparative example 2 (monoVal-H2G) and 3 (diVal-H2G) are shown in Examples 20 and 23. […] Comparative examples 5 & 8 (Val/Ac H2G) were prepared analogously to Example 4 using acetic anhydride with relevant monovaline H2G. Comparative example 6 (Ala/stearoyl H2G) was prepared analogously to Example 6 using N-t-Boc-L-alanine in step 4. Comparative example 7 (Gly/decanoyl) was prepared analogously to Example 5 but using the step a) intermediate made with N-t-Boc-L-glycine. The preparation of Comparative examples 9 and 10 is shown in Examples 24 and 25 respectively.

[3] = tested on: Herpes simplex virus-1 (HSV-1); test: Antiviral activity in HSV-1-infected mouse (survival); format: in vivo, mice; conditions: 21 and 83 mg/kg three times daily p.o. for 5 days, relative to an equivalent dose of acyclovir
Description: Herpes simplex virus-1 (HSV-1)-infected mouse serves as an animal model to determine the efficacy of antiviral agents in vivo. Mice inoculated intraperitoneally with HSV-1 at 1000 times the LD50 were administered either with a formulation comprising the currently marketed anti-herpes agent acyclovir (21 and 83 mg/kg in a 2% propylene glycol in sterile water vehicle, three times daily, p.o.) or the compound of Example 29 (21 and 83 mg/kg in a 2% propylene glycol in sterile water vehicle, three times daily, p.o.) for 5 consecutive days beginning 5 hours after inoculation. The animals were assessed daily for deaths. […] In the legend, the compound of the invention is denoted Ex.29 and acyclovir is denoted ACV.

[4] = Table 2, rats, 0.1 mmol/kg per oral, 24 hour urinary H2G recovery as percentage of that after 0.1 mmol/kg H2G i.v.

Row | SMILES | Bioavailability [1] | Bioavailability ([2]; Table 1A, urinary recovery assay of H2G from rats, oral, see Biological Example 1) | Bioavailability [2, 4] | percentage of mice surviving the HSV-1 infection (FIG. 2) [3]
1 | Nc1nc2c(ncn2CC(CO)CCO)c(=O)[nH]1 (stereo not shown) [Comparative example 1, 9-[4-hydroxy-(2-hydroxymethyl)butyl]guanine, reference compound] | 3.8% | 8% | 8% | 
2 | CCCCCCCCCCCCCCCCCC(=O)OC[C@H](CCOC(=O)[C@@H](N)C(C)C)Cn1cnc2c(=O)[nH]c(N)nc21.Cl [Example 29, (R)-9-[(2-stearoyloxymethyl)-4-(L-valyloxy)butyl]guanine monohydrochloride] |  |  |  | significantly greater
3 | CCCCCCCCCCCCCCCCCC(=O)OCC[C@@H](CO)Cn1cnc2c(=O)[nH]c(N)nc21 [Comparative Example 10] |  |  | 7% | 

Now from value to compound, other results behind:

Row | Bioavailability [1] | Bioavailability ([2]; Table 1A, urinary recovery assay of H2G from rats, oral, see Biological Example 1) | Bioavailability [2, 4] | SMILES | percentage of mice surviving the HSV-1 infection (FIG. 2) [3]
4 |  |  | 53% | CCCCCCCCCCCCCCCCCC(=O)OC[C@H](CCOC(=O)[C@@H](N)[C@@H](C)CC)Cn1cnc2c(=O)[nH]c(N)nc21 [Example 7] | 
5 |  |  | 52% | CC(=O)CCCC(=O)OC[C@H](CCOC(=O)[C@@H](N)C(C)C)Cn1cnc2c(=O)[nH]c(N)nc21 [Example 10] | 
